# Laboratory results: paper PMC10397409, “The action of physiological and synthetic steroids on the calcium channel CatSper in human sperm” (Frontiers in Cell and Developmental Biology, 2023)
# Values joined by “and” are separate entries in the source; they are usually repeats but may differ in a detail not shown here. Equal entries are not always repeated. Where two headings read alike, the source gives them in different places.
# What was measured:
# CatSper [1] = target: T1, CatSper (Homo sapiens, UniProt Q7RTX7+Q86XQ3+Q8NEC5+Q96P56); test: Steroid-induced increase in [Ca2+]i in human sperm (Fluo-4 HTS assay, screen 1 activators); assay type: cell-based; settings: for Emax: read-out: Max amplitude (%) (± SD)
# T1 construct: Motile spermatozoa were selected by a ‘swim-up’ procedure; endogenous in cells; host or cells: motile human spermatozoa (swim-up) from healthy donors
# Method: (§1) Briefly, motile spermatozoa were selected by swim-up and labeled with the fluorescent calcium indicator Fluo-4 a.m. to image changes in [Ca^2+]i. After centrifugation to remove excess dye, Fluo-4 AM loaded cells were distributed in a 384-wells plate to obtain ∼125,000 cells/well. After measuring basal fluorescence, a first injection of compounds was performed in order to evaluate their effect on [Ca^2+]i alone. This first screen is therefore considered as a screen to search for ‘activators’. Fluorescence was recorded for 12 min during which sperm cells were continuously exposed to compounds. P4 or PGE1 were then added in the same wells to evaluate whether the tested compounds can reduce the ligand-induced activation of CatSper. This second screen was therefore considered to be a search for CatSper ‘inhibitors’.
# Human semen samples were collected from healthy donors by masturbation after a recommended sexual abstinence period of minimum 2 days. Semen samples were allowed to liquefy at 37°C for 15–30 min. […] Motile sperm were allowed to swim at 37°C for 1 hour. The supernatant was collected in 15 mL Falcon tubes and washed twice by centrifugation at 700 x g for 20 min. Sperm were supplemented with 3 mg/mL HSA.
# 20 μL of cells (corresponding to ∼125,000 cells) loaded with Fluo-4 a.m. were dispensed in a 384-wells plate (Corning, NY, United States) to allow fluorescence measurement. The dye was excited at 480 nm, and emission was recorded at 530 nm. The change in [Ca^2+]i was assessed simultaneously in all wells using a Functional Drug Screening System (FDSS/μCELL) (Hamamatsu Phototonics K.K., Yokohama, Japan) at 37°C. Basal fluorescence was first measured for 30 s. […] P4 and PGE1 were tested at a near-saturating concentration in the HTS in order to evaluate a potential additive or synergistic effect induced by the compounds. […] For alkalization-induced Ca^2+ measurement, NH4Cl was used as a positive control at a final concentration of 10 mM. […] The Prestwick library was tested in technical duplicate. Ca^2+ response curves were normalized using the following formula F−F0/F0×100 , where F 0 is the average of the basal fluorescence prior to the addition of the compound of interest and F corresponds to the fluorescence value at each time point. The ∆F/F0 of the vehicle control (DMSO) was subtracted from all the other values to adjust for dilution and pipetting artifacts. The values of all compounds were normalized to their respective controls.
# Data are shown as mean ± standard deviation (SD) with “n” referring to the number of independent experiments performed using sperm samples from ≥3 different donors. Statistical analysis and fitting of dose-response relations were performed using GraphPad Prism 8.1.1 (Prism, La Jolla, United States). To generate sigmoidal curves, the concentrations were converted to their respective log values, and the data were normalized using the following formula: 100⋅x/Fmax , where Fmax is the maximum value of the positive control. A four-parameter Hill equation with a variable Hill coefficient was fitted to generate the EC02, EC50, and IC50. Statistical significance between control and treated conditions was evaluated using a one-way analysis of variance (ANOVA), followed by Dunnett´s test. A p-value <0.05 was considered significant.
# CatSper [2] = target: T1, CatSper; test: Inhibition of P4-induced Ca2+ influx in human sperm (screen 2 inhibitors); assay type: cell-based
# Method: as §1
# Human semen samples were collected from healthy donors by masturbation after a recommended sexual abstinence period of minimum 2 days. Semen samples were allowed to liquefy at 37°C for 15–30 min. Motile spermatozoa were selected by a ‘swim-up’ procedure as previously described ([Strünker et al., 2011]). Briefly, 1 mL of semen was deposited in a 45°-inclined 50 mL Falcon tube with 4 mL of Human Tubular Fluid (HTF) medium containing: 93.8 mM NaCl, 4.7 mM KCl, 0.2 mM MgSO4, 0.37 mM KH2PO4, 2.04 mM CaCl2, 20.98 mM HEPES, 2.78 mM glucose, 21.4 mM Na-lactate, 4 mM NaHCO3, 0.33 mM Na-pyruvate, and the pH was adjusted to 7.35. Motile sperm were allowed to swim at 37°C for 1 hour. The supernatant was collected in 15 mL Falcon tubes and washed twice by centrifugation at 700 x g for 20 min. Sperm were supplemented with 3 mg/mL HSA. Written informed consent was obtained from all donors prior to donation and approved by the Cantonal Ethics Committee of the State of Geneva (CCER #14-147).
# Cells were loaded with the fluorescent Ca^2+ indicator Fluo-4 AM at a final concentration of 2.5 µM for 30 min at 37°C. Excess dye was washed via centrifugation at 700 x g for 20 min and sperm were resuspended in HTF medium to obtain a final concentration of 6.25 x 10^6 cells/mL. 20 μL of cells (corresponding to ∼125,000 cells) loaded with Fluo-4 a.m. were dispensed in a 384-wells plate (Corning, NY, United States) to allow fluorescence measurement. The dye was excited at 480 nm, and emission was recorded at 530 nm. The change in [Ca^2+]i was assessed simultaneously in all wells using a Functional Drug Screening System (FDSS/μCELL) (Hamamatsu Phototonics K.K., Yokohama, Japan) at 37°C. Basal fluorescence was first measured for 30 s. […] P4 and PGE1 were tested at a near-saturating concentration in the HTS in order to evaluate a potential additive or synergistic effect induced by the compounds. Non-specific CatSper inhibitor MDL 12330A was used as a negative control at final concentration of 20 µM while DMSO was used as a vehicle control. For alkalization-induced Ca^2+ measurement, NH4Cl was used as a positive control at a final concentration of 10 mM. Fluorescence was recorded for a total of 16.5 min: 30 s before injection, 12 min after the first injection of the tested compounds, and 4 min after the second injection of either P4 or PGE1. The Prestwick library was tested in technical duplicate. Ca^2+ response curves were normalized using the following formula F−F0/F0×100 , where F 0 is the average of the basal fluorescence prior to the addition of the compound of interest and F corresponds to the fluorescence value at each time point. The ∆F/F0 of the vehicle control (DMSO) was subtracted from all the other values to adjust for dilution and pipetting artifacts. The values of all compounds were normalized to their respective controls.
# [3] = maximal amplitude of steroid-induced [Ca2+]i increase, relative to P4, 3 independent experiments
# [4] = pooled from 3 independent experiments, read-out: Mean EC50 µM (±SD)
# [5] = P4-induced response, pooled from 3 independent experiments, read-out: Mean IC50 (P4) µM (±SD)
# [6] = Mean EC50 µM (±SD), pooled from 3 independent experiments
# [7] = Mean IC50 (P4) µM (±SD), P4-induced response, pooled from 3 independent experiments
Structure (SMILES),Emax (CatSper [1]),Max P4 inhibition (%) (± SD) (CatSper [2]; 3 independent experiments),Emax (CatSper [1]; [3]),EC50 (CatSper [1]; [4]),IC50 (CatSper [2]; [5]),other results
CC12CCC3C(CC[C@H]4CC(=O)CCC34C)C1CCC2O (stereo partly shown) [S65],91%,95 (±1) %,,,,
C[C@]12CC[C@@H]3c4ccc(O)cc4C[C@@H](CCCCCCCCC[S+]([O-])CCCC(F)(F)C(F)(F)F)[C@H]3[C@@H]1CC[C@@H]2O (stereo partly shown) [fulvestrant],,22 (±6) %,28%,2.24 µM,6.95 µM,
C#C[C@]1(OC(C)=O)CC[C@H]2[C@@H]3CCC4=CC(=NO)CC[C@@H]4[C@H]3CC[C@@]21CC (mixture of isomers) [norgestimate],,53 (±5) %,79%,0.918 µM,8.05 µM,
C[C@]12CCC(=O)C=C1C=C[C@@H]1[C@@H]2CC[C@@]2(C)[C@H]1CC[C@@]21CCC(=O)O1 [canrenone],,49 (±1) %,69%,7.51 µM,,
C[C@]12CCC(=O)C=C1CC[C@@H]1[C@@H]2C(=O)C[C@]2(C)C(=O)CC[C@@H]12 [adrenosterone],,24 (±3) %,,14.5 µM,30.8 µM,Max amplitude (%) (± SD) (CatSper [1]; [3]): 26 (±2) %
CC(=O)C1CCC2C3CC[C@H]4CC(=O)CC[C@]4(C)C3CC[C@]12C (stereo partly shown) [S46],141%,90 (±6) %,,,,"EC50 (CatSper [1]; EC50, increase in [Ca2+]i in human sperm): 0.032 µM and 0.073 µM; IC50 (CatSper [2]; IC50, decrease of response to P4): 0.046 µM and 0.138 µM"
C[C@]12CC[C@@H](O)C[C@H]1CC[C@@H]1[C@@H]2CC[C@]2(C)C(=O)CC[C@@H]12 [3-alpha-hydroxy-5-beta-androstan-17-one],,66 (±2) %,,0.915 µM,1.52 µM,Max amplitude (%) (± SD) (CatSper [1]; [3]): 66 (±2) %
C[C@]12CC[C@@H]3c4ccc(O)cc4CC[C@H]3[C@@H]1CCC2=O [estrone],,67 (±2) %,49%,,,EC50 (CatSper [1]; [6]): 0.267 µM; IC50 (CatSper [2]; [7]): 0.56 µM
C[C@]12CC[C@H]3C(=CCc4cc(O)ccc43)[C@@H]1CCC2=O [equilin],62%,,,,,EC50 (CatSper [1]): 0.999 µM; IC50 (CatSper [2]): 1.85 µM; Max P4 inhibition (%) (± SD) (CatSper [2]): 50 (±11) %
C[C@]12CCC(=O)C(O)=C1CC[C@@H]1[C@@H]2CC[C@]2(C)C(=O)CC[C@@H]12 [formestane],71%,70 (±8) %,,,,EC50 (CatSper [1]; [6]): 0.353 µM; IC50 (CatSper [2]; [7]): 1.22 µM
C#C[C@]1(O)CC[C@H]2[C@@H]3CCC4=CC(=O)CCC4=C3C=C[C@@]21CC [gestrinone],2%,11 (±21) %,,,,IC50 (CatSper [2]; [7]): 33.6 µM
